The values that follow come from US9920033B2, “Crystalline form of a substituted quinoline compound and pharmaceutical compositions thereof” (Sunshine Lake Pharma Co., Ltd., priority 2015, dated 2018).

Molecules are shown by their SMILES. Read-outs that look alike come from different tables or passages of the source.

Data set [1] can be described thus: Stability test (impurity contents by HPLC). It is filed as physicochemical. The following applies: for The impurity contents: HPLC; for Increase of the impurity contents: illuminating the samples for 10 days. Here is the method:
A sample of crystalline form A of compound (I) (100˜200 mg) was placed on a watching glass in the form of a thin layer (thickness ≤5 mm). The samples were exposed to the following conditions: high temperature (60±2° C.) for 10 days; high humidity (25±2° C., 90%±5% relative humidity) for 10 days; illumination condition (visible light 4500 lx±500 lx with ultraviolet light not lower than 0.7 W·h/m^2, 25±2° C., 60%±5% relative humidity) for 10 days; and room temperature (30±2° C., 65%±5% relative humidity) for 10 days, respectively. The impurity contents in the samples were determined at different time points (0, 5 and 10 days) by high performance liquid chromatography (HPLC), and the absorption peaks were normalized relative to the highest peak (corresponds to compound I) which is set to 100%.

Data set [2] is described as follows: Pharmacokinetics test in beagle dogs. In kind it is in vivo. The settings on record: for AUC(0-inf) / Cmax / Tmax / half-life / AUC(0-t): dog, plasma, po, capsule by gavage; for AUC(0-t): read-out: AUC0-24 h. How it is done:
The pharmacokinetic properties of amorphous Compound (I) or the crystalline form A of Compound (I) disclosed herein are assessed in beagle dogs. The LC/MS/MS system used in the analysis consists of an Agilent 1200 Series vacuum degasser, binary pump, well-plate autosampler, thermostatted column compartment, the Agilent G6430 Triple Quadrupole Mass Spectrometer with an electrosprayionization (ESI) source. Quantitative analysis was carried out using MRM mode. The parameters for MRM transitions are in the Table A.
An Agilent XDB-C18, 2.1×30 mm, 3.5 μM column was used for the analysis. 5 μL of the samples were injected. Analysis condition: The mobile phase was 0.1% formic acid in water (A) and 0.1% formic acid in methanol (B). The flow rate was 0.4 mL/min. And the gradient of Mobile phase was in the Table B.
Alternatively, an Agilent 6330 series LC/MS/MS spectrometer equipped with G1312A binary pumps, a G1367A autosampler and a G1314C UV detector were used in the analysis. An ESI source was used on the LC/MS/MS spectrometer. The analysis was done in positive ion mode as appropriate and the MRM transition for each analyte was optimized using standard solution. A Capcell MP-C18 100×4.6 mm I.D., […] column (Phenomenex, Torrance, Calif., USA) was used during the analysis. The mobile phase was 5 mM ammonia acetate, 0.1% MeOH in water (A): 5 mM ammonia acetate, 0.1% MeOH in acetonitrile (B) (70/30, v/v). The flow rate was 0.6 mL/min. Column was maintained at ambient temperature. 20 μL of the samples were injected.
[…] The blood samples (0.3 mL) were drawn at 0.25, 0.5, 1.0, 2.0, 3.0, 4.0, 6.0, 8.0, 12 and 24 hour time points or 0.083, 0.25, 0.5, 1.0, 2.0, 4.0, 6.0, 8.0 and 24 hour time points and centrifuged at 3,000 or 4000 rpm for 2 to 10 min. The plasma solutions were collected, and analyzed by LC/MS/MS as described above. The pharmacokinetic parameters were calculated according to non-compartment model using WinNonlin procedure.

The next data set is described as follows: Hygroscopicity test. It is filed as physicochemical. The following applies: p-toluenesulfonate; for Hygroscopicity (conclusion in words): from Table 6; for Hygroscopic capacity: 25±1° C. Here is the method: A glass weighing bottle equipped with a stopper was tarred and the weight was recorded as m1. Compound (I) in crystalline form A or amorphous form (about 1.0 g) was placed in the tared weighing bottle and capped with the stopper. The total weight was then recorded as m2. […] The weighing bottle capped with its stopper was weighed on day 5 and day 10 and the weight was recorded as m3.

Setting [3] is: high humidity (25±2° C., 90%±5% relative humidity), 0 day, p-toluenesulfonate.
Where [4] appears, read: high humidity (25±2° C., 90%±5% relative humidity), 5 days, p-toluenesulfonate.
[5] abbreviates: high humidity (25±2° C., 90%±5% relative humidity), 10 days, p-toluenesulfonate.
Where [6] appears, read: high temperature (60±2° C.), 0 day, p-toluenesulfonate.
The mark [7] stands for this setting: high temperature (60±2° C.), 5 days, p-toluenesulfonate.
Setting [8] is: high temperature (60±2° C.), 10 days, p-toluenesulfonate.
The mark [9] stands for this setting: illuminating condition (visible light 4500 lx±500 lx with UV, 25±2° C., 60%±5% RH), 0 day, p-toluenesulfonate.
[10] abbreviates: illuminating condition (visible light 4500 lx±500 lx with UV, 25±2° C., 60%±5% RH), 5 days, p-toluenesulfonate.
Where [11] appears, read: illuminating condition (visible light 4500 lx±500 lx with UV, 25±2° C., 60%±5% RH), 10 days, p-toluenesulfonate.
Where [12] appears, read: room temperature (30±2° C., 65%±5% relative humidity), 0 day, p-toluenesulfonate.
The mark [13] stands for this setting: dose 9.7 mg/kg, grain size D90 32 μm.
[14] abbreviates: dose 10 mg/kg, grain size D90 22 μm.

For orientation: AUC(0-inf) means the area under the concentration-time curve extrapolated to infinity. By Cmax is commonly meant the maximum level reached in the sampled fluid or tissue. By Tmax is commonly meant the time from dosing to the highest level. As a reminder, the half-life is how long it takes for the measured level to halve. Lower therefore signals fast loss. As for `Cc1c(C(=O)Nc2ccc(Oc3ccnc4cc(OCC(C)(C)O)ccc34)c(F)c2)c(=O)n(-c2ccccc2)n1C.Cc1ccc(S(=O)(=O)O)cc1` [Amorphous, N-(3-fluoro-4-((7-(2-hydroxy-2-methylpropoxy)quinolin-4-yl)oxy)phenyl)-1,5-dimethyl-3-oxo-2-phenyl-2,3-dihydro-1H-pyrazole-4-carboxamide p-toluenesulfonate], the The impurity contents in data set [1] (setting [3]) was 0.14%; in data set [1] (setting [4]), 0.11%; in data set [1] (setting [5]) it was 0.07%; in data set [1] (setting [6]), 0.14%; in data set [1] (setting [7]), 0.13%; in data set [1] (setting [8]), 0.10%. For the same compound, the The impurity contents in data set [1] (setting [9]) was determined as 0.14%; in data set [1] (setting [10]) it was 0.36%; in data set [1] (setting [11]), 0.56%; in data set [1] (setting [12]), 0.14%; in data set [1] (room temperature (30±2° C., 65%±5% relative humidity), 5 days), 0.07%; in data set [1] (room temperature (30±2° C., 65%±5% relative humidity), 10 days) it was 0.07%. In addition, the “Increase of the impurity contents” value in data set [1] (listed as amorphous Compound (I), p-toluenesulfonate) amounted to 0.42%. The compound further showed an AUC(0-inf) in data set [2] (setting [13]) of 55300 ng·h/mL. For the same compound, in data set [2] (setting [13]), the Cmax was 2640 ng/mL. In addition, the Tmax in data set [2] (setting [13]) was determined as 3.33 h. In data set [2] (setting [13]), the half-life is 15 h. Also, in data set [2] (setting [13]), the AUC(0-t) came to 37300 ng·h/mL. The “Hygroscopicity (conclusion in words)” value in the data set “Hygroscopicity test” (listed as amorphous Compound (I)) was “hygroscopic”. Also, the Hygroscopic capacity in the data set “Hygroscopicity test” (standing time 5 d) was determined as 7.74%; in the data set “Hygroscopicity test” (standing time 10 d) it was 8.48%.
Turning to `Cc1c(C(=O)Nc2ccc(Oc3ccnc4cc(OCC(C)(C)O)ccc34)c(F)c2)c(=O)n(-c2ccccc2)n1C.Cc1ccc(S(=O)(=O)O)cc1` [Form A, N-(3-fluoro-4-((7-(2-hydroxy-2-methylpropoxy)quinolin-4-yl)oxy)phenyl)-1,5-dimethyl-3-oxo-2-phenyl-2,3-dihydro-1H-pyrazole-4-carboxamide p-toluenesulfonate], the The impurity contents in data set [1] (setting [3]) worked out at 0.35%; in data set [1] (setting [4]) it was 0.37%; in data set [1] (setting [5]), 0.39%; in data set [1] (setting [6]), 0.35%; in data set [1] (setting [7]), 0.37%; in data set [1] (setting [8]) it was 0.37%. Further, the The impurity contents in data set [1] (setting [9]) is given as 0.35%; in data set [1] (setting [10]) it was 0.38%; in data set [1] (setting [11]), 0.48%; in data set [1] (setting [12]) it was 0.35%. In addition, in data set [1] (listed as crystalline form A of Compound (I), p-toluenesulfonate), the “Increase of the impurity contents” value was determined as 0.13%. The “Exposure and bioavailability in vivo (conclusion in words)” value in data set [2] (Cmax, AUC0-24h and AUC0-∞ compared with amorphous Compound (I)) is “good exposure and bioavailability”. The same compound yielded a total exposure AUC(0-inf) in data set [2] (setting [14]) of 180000 ng·h/mL. The compound also came in with a Cmax in data set [2] (setting [14]) of 6190 ng/mL. In data set [2] (setting [14]), the Tmax is 4 h. In data set [2] (setting [14]), this compound gave a half-life of 25 h. The AUC(0-t) in data set [2] (setting [14]) was 131000 ng·h/mL. Besides, the “Hygroscopicity (conclusion in words)” value in the data set “Hygroscopicity test” (listed as crystalline form A of compound (I)) is “not hygroscopic”. Also, the results for the Hygroscopic capacity in “Hygroscopicity test” (standing time 5 d) and in “Hygroscopicity test” (standing time 10 d) were 0.03% and 0.12%, respectively.
